Test results: patent US10610562B2, “Instant water soluble bioactive dietary phytonutrients composition of spice/herb extracts and a process for its preparation” (AKAY FLAVOURS & AROMATICS PVT. LTD, priority 2014, dated 2020)
In brackets after ≈: the same amount, converted by molar mass.

How the values were obtained:
rat liver homogenate = experiment: Lipid peroxidation assay; format: biochemical
Procedure: The level of lipid peroxidation was measured by the method of Ohkawa et al (1979). Briefly, 1 mg/mL spice extract stock solution was prepared in distilled water. Various concentrations (1-10 μg/mL) of extract were incubated with 0.1 mL rat liver homogenate (25%) containing 30 mM KCl, Tris-HCl buffer (0.04 M, pH 7.0), ascorbic acid (0.06 mM) and ferrous ion (0.16 mM) in a total volume 0.5 mL for 1 hr. After incubation, 0.4 mL of reaction mixture was treated with 0.2 mL SDS (8.1%), 1.5 mL TBA (0.8%) and 1.5 mL acetic acid (20%, pH 3.5) distilled water were kept for 1 hr in a boiling water bath at 100° C. […] Absorbance of the clear supernatant was measured at 532 nm against pyridine:butanol. Percent inhibition of lipid peroxidation was calculated using the equation: […]

[1] = Superoxide radical anion scavenging activity; format: biochemical
Procedure: McCord and Fridovich, (1969), measure super oxide radical anion scavenging activity. Briefly, 1 mg/mL spice extract stock solution was prepared in distilled water. The reaction mixture contained 200 μL KCN [dissolved in EDTA (6 mM)], 50 μL riboflavin (0.12 mM), 100 μL NBT (1.5 mM) and various concentrations (1-10 μg/mL) of the extract and add Phosphate buffer made up to 3 mL. The tubes containing the reaction mixture were uniformly illuminated with an incandescent lamp for 15 minutes. The absorbance was measured at 530 nm before and after the illumination. Percent inhibition of superoxide radical was calculated using the equation: […] Mix well and this was given to five volunteer for sensory evaluation. The sample was first de-oiled and its antioxidant level was check using DPPH, ABTS, & SOD method comparing with plain potato chips.

[2] = Hydroxyl radical scavenging activity; format: biochemical
Procedure: Hydroxyl radical scavenging activity of the extract was measured by following the method of Elizabeth and Rao, (1990). Briefly, 1 mg/mL spice extract stock solution was prepared in distilled water and mixed with the reaction mixture containing deoxyribose (2.8 mM), ferric chloride (0.1 mM) EDTA (0.1 mM), H2O2 (1 mM), ascorbate (0.1 mM), and KH2PO4—KOH (20 mM, pH 7.4) at various concentrations (1-10 μg/mL) to a total volume of 1 mL and incubated for 1 hr at 37° C. Absorbance of each solution was measured at 530 nm using a UV/VIS spectrophotometer against the distilled water as reference. From the absorbance of the control and test solution, percentage inhibition was calculated.

ABTS assay = format: biochemical
Procedure: Keep ABTS solution at Room temperature for 16 hours, and then store it at 4° C. (if not use). Take 500 μL, ABTS solution and add 50 mL PBS; adjust the OD to 0.7-0.8 against PBS as reference at 734 nm. Take 1 mL ABTS solution with different varies concentration of the extracts (1 mg/mL spice extract stock solution was prepared in distilled water) and made up to 2 mL with PBS. Keep the sample at room temperature for 6 minutes. The absorbance was measured at 734 nm. The results were calculated from the slopes of reaction curves obtained by plotting the absorbance Vs time. […] Mix well and this was given to five volunteer for sensory evaluation. The sample was first de-oiled and its antioxidant level was check using DPPH, ABTS, & SOD method comparing with plain potato chips.

DPPH assay = format: biochemical
Procedure: Briefly, various concentrations of the extract were added to 1 mL of freshly prepared DPPH solution in methanol. The reaction mixture was made up to 2 mL with methanol; incubated for 20 minutes; read at 515 nm against methanol as reference. The percentage inhibition was calculated and concentration needed for 50% inhibition was found out. […] Mix well and this was given to five volunteer for sensory evaluation. The sample was first de-oiled and its antioxidant level was check using DPPH, ABTS, & SOD method comparing with plain potato chips.

[3] = system: carrageenan induced paw oedema; experiment: In vivo anti-inflammatory potential, carrageenan induced paw oedema model; set-up: species or system Swiss albino mice; conditions: reference drug at dose 50 mg/kg body weight
Procedure: The animals for experimental model were taken from small breeding station of Amala Cancer Research Centre, Thrissur (Registration No. 149/99/CPCSEA) and […] Institute of Medical Science, Kochi (Registration No. 527/02/a/CPCSEA). The animals were kept in air-conditioned room at 22±2° C. and relative humidity […] with 12 hours day and light cycle, fed with normal mouse chow, a natural ingredient diet (Sai Feeds, India) and water ad libitum. All animal experiments were performed according to the rules and regulations of the Committee for the Purpose of Control and Supervision of Experiments on Animals (CPCSEA), Government of India. Five groups each contained six Male Swiss albino mice (25-30 g) in each group were injected with 25 μL of 1% suspension of carrageenan in 0.1% carboxy methylcellulose (CMC) sub-planetary into right hind paw. Paw volume was measured at various time intervals such as, paw volume before inflammation induction, then for 1, 2, 3, 4, 5 and 24 hours after carrageenan administration using a vernier calliper. Clove extract at doses 25, 50 and 100 mg/kg body weight was administered (orally) 1 hour prior to carrageenan injection. […] The percentages of inhibition were calculated according to the following formula. […] Where, VT-Paw oedema at various time intervals and Vo-Initial paw oedema [table]

O=C1O[C@H]([C@@H](O)CO)C(O)=C1O [Vitamin C]
IC50, lipid peroxidation (rat liver homogenate): 375 µg/mL (≈ 2130 µM)
IC50, superoxide radical anion scavenging [1]: 1900 µg/mL (≈ 10800 µM)
IC50, hydroxyl radical scavenging [2]: 1550 µg/mL (≈ 8800 µM)
IC50, ABTS (ABTS assay): 2.25 µg/mL (≈ 12.8 µM)
IC50, DPPH (DPPH assay): 14 µg/mL (≈ 79.5 µM)

O=C(O)Cc1ccccc1Nc1c(Cl)cccc1Cl [diclofenac, Diclofenac]
inhibition of paw oedema [3]: 56.70%
